# Test system: not listed separately
# Assay: Antiproliferative activity against human H184B5F5/M10 cells after 72 hrs by XTT assay
# Format: functional, cell-based
# Settings: H184B5F5/M10, 72 h
row,SMILES,IC50 [µM]
1,COc1ccc(-c2cc3ccccc3nc2/C=C/C(=O)c2ccc(N)cc2)cc1,9.29
2,COc1ccc(-c2cc3ccccc3nc2/C=C/C(=O)c2ccc(O)cc2)cc1,5.69
3,COc1ccc(-c2cc3ccccc3nc2/C=C/C(=O)c2c[nH]c3ccccc23)cc1,> 10
4,COc1ccc(-c2cc3ccccc3nc2/C=C/C(=O)c2ccc[nH]2)cc1,> 10
5,COc1ccc(-c2cc3ccccc3nc2/C=C/C(=O)c2cnc(N)nc2C)cc1,> 10
6,COc1ccc(-c2cc3ccccc3nc2/C=C/C(=O)c2ccco2)cc1,6.24

# Test system: SK-BR-3
# Assay: Antiproliferative activity against human SKBR3 cells after 72 hrs by XTT assay
# Format: functional, cell-based
# Settings: SK-BR-3, 72 h
row,IC50 [µM],SMILES
1,8.56,COc1ccc(-c2cc3ccccc3nc2/C=C/C(=O)c2ccc(N)cc2)cc1
2,3.88,COc1ccc(-c2cc3ccccc3nc2/C=C/C(=O)c2ccc(O)cc2)cc1
3,3.45,COc1ccc(-c2cc3ccccc3nc2/C=C/C(=O)c2c[nH]c3ccccc23)cc1
4,> 10,COc1ccc(-c2cc3ccccc3nc2/C=C/C(=O)c2ccc[nH]2)cc1
5,> 10,COc1ccc(-c2cc3ccccc3nc2/C=C/C(=O)c2cnc(N)nc2C)cc1
6,0.64,COc1ccc(-c2cc3ccccc3nc2/C=C/C(=O)c2ccco2)cc1

# Test system: MDA-MB-231
# Assay: Antiproliferative activity against human MDA-MB-231 cells after 72 hrs by XTT assay
# Format: functional, cell-based
# Settings: MDA-MB-231, 72 h
row,IC50 [µM],SMILES
1,7.51,COc1ccc(-c2cc3ccccc3nc2/C=C/C(=O)c2ccc(N)cc2)cc1
2,6.35,COc1ccc(-c2cc3ccccc3nc2/C=C/C(=O)c2ccc(O)cc2)cc1
3,> 10,COc1ccc(-c2cc3ccccc3nc2/C=C/C(=O)c2c[nH]c3ccccc23)cc1
4,> 10,COc1ccc(-c2cc3ccccc3nc2/C=C/C(=O)c2ccc[nH]2)cc1
5,> 10,COc1ccc(-c2cc3ccccc3nc2/C=C/C(=O)c2cnc(N)nc2C)cc1
6,0.63,COc1ccc(-c2cc3ccccc3nc2/C=C/C(=O)c2ccco2)cc1

# Test system: MCF7
# Assay: Antiproliferative activity against human MCF7 cells after 72 hrs by XTT assay
# Format: functional, cell-based
# Settings: MCF7, 72 h
row,IC50 [µM],SMILES
1,6.92,COc1ccc(-c2cc3ccccc3nc2/C=C/C(=O)c2ccc(N)cc2)cc1
2,6.71,COc1ccc(-c2cc3ccccc3nc2/C=C/C(=O)c2ccc(O)cc2)cc1
3,> 10,COc1ccc(-c2cc3ccccc3nc2/C=C/C(=O)c2c[nH]c3ccccc23)cc1
4,> 10,COc1ccc(-c2cc3ccccc3nc2/C=C/C(=O)c2ccc[nH]2)cc1
5,> 10,COc1ccc(-c2cc3ccccc3nc2/C=C/C(=O)c2cnc(N)nc2C)cc1
6,0.71,COc1ccc(-c2cc3ccccc3nc2/C=C/C(=O)c2ccco2)cc1

# Test system: A549
# Assay: Antiproliferative activity against human A549 cells after 72 hrs by XTT assay
# Format: functional, cell-based
# Settings: A549, 72 h
row,IC50 [µM],SMILES
1,7.53,COc1ccc(-c2cc3ccccc3nc2/C=C/C(=O)c2ccc(N)cc2)cc1
2,7.44,COc1ccc(-c2cc3ccccc3nc2/C=C/C(=O)c2ccc(O)cc2)cc1
3,> 10,COc1ccc(-c2cc3ccccc3nc2/C=C/C(=O)c2c[nH]c3ccccc23)cc1
4,> 10,COc1ccc(-c2cc3ccccc3nc2/C=C/C(=O)c2ccc[nH]2)cc1
5,> 10,COc1ccc(-c2cc3ccccc3nc2/C=C/C(=O)c2cnc(N)nc2C)cc1
6,6.13,COc1ccc(-c2cc3ccccc3nc2/C=C/C(=O)c2ccco2)cc1

# Test system: not listed separately
# Assay: Antiproliferative activity against human H460 cells after 72 hrs by XTT assay
# Format: functional, cell-based
# Settings: NCI-H460, 72 h
row,SMILES,IC50 [µM]
1,COc1ccc(-c2cc3ccccc3nc2/C=C/C(=O)c2ccc(N)cc2)cc1,7.4
2,COc1ccc(-c2cc3ccccc3nc2/C=C/C(=O)c2ccc(O)cc2)cc1,6.93
3,COc1ccc(-c2cc3ccccc3nc2/C=C/C(=O)c2c[nH]c3ccccc23)cc1,8.01
4,COc1ccc(-c2cc3ccccc3nc2/C=C/C(=O)c2ccc[nH]2)cc1,> 10
5,COc1ccc(-c2cc3ccccc3nc2/C=C/C(=O)c2cnc(N)nc2C)cc1,> 10
6,COc1ccc(-c2cc3ccccc3nc2/C=C/C(=O)c2ccco2)cc1,6.43

# Test system: not listed separately
# Assay: Antiproliferative activity against human H1299 cells after 72 hrs by XTT assay
# Format: functional, cell-based
# Settings: NCI-H1299, 72 h
row,SMILES,IC50 [µM]
1,COc1ccc(-c2cc3ccccc3nc2/C=C/C(=O)c2ccc(N)cc2)cc1,6.51
2,COc1ccc(-c2cc3ccccc3nc2/C=C/C(=O)c2ccc(O)cc2)cc1,8.97
3,COc1ccc(-c2cc3ccccc3nc2/C=C/C(=O)c2c[nH]c3ccccc23)cc1,> 10
4,COc1ccc(-c2cc3ccccc3nc2/C=C/C(=O)c2ccc[nH]2)cc1,> 10
5,COc1ccc(-c2cc3ccccc3nc2/C=C/C(=O)c2cnc(N)nc2C)cc1,> 10
6,COc1ccc(-c2cc3ccccc3nc2/C=C/C(=O)c2ccco2)cc1,0.73
